Experimental data: patent US20200237909A1, “METHODS OF TREATING OR PREVENTING BREAST CANCER METASTASES USING ANTIBODIES TO JAGGED1 AND CHEMOTHERAPEUTIC AGENTS” (The Trustees of Princeton University, priority 2017, published 2020)

Tests used:
SCP28-Jagged1 cells = assay: SCP28-Jagged1 bone metastasis, late treatment with 15D11 and paclitaxel; format: in vivo, mice; conditions: in words
Description: To evaluate the combinatorial effect of 15D11 with conventional chemotherapy, we treated bone metastasis generated by SCP28-Jagged1 cells with 15D11 and paclitaxel, using the late treatment protocol (treatment initiated 1 week after IC injection) (FIG. 3A). […] Mice were treated with IgG (as negative control), 15D11, paclitaxel, or both, one week after IC injection of SCP28-Jagged1 to establish bone metastases.
For experimental bone metastasis, three models were used using intra-cardiac (IC), intra-iliac artery (IIA), and intra-tibia (i.t.) injection methods, as previously described (Andersen et al., 2003; Sethi et al., 2011; Wang et al., 2015). Bone metastasis burden was monitored by weekly BLI and X-ray imaging. At the experimental endpoint, mice were euthanized for bone histology analysis and half of the bone samples were used for μCT imaging and bone density quantification.
The initial treatment is either one day before tumor cell injection or one week after tumor cell injection as described in each experiment. For IgG or 15D11 antibody treatment, mice were i.p. injected at the dosing of 10 mg/kg, twice a week. […] For paclitaxel treatment, paclitaxol powder was first dissolved in 95% ethanol, sonicated and shaken overnight, before mixing 1:1 with cremophor (Sigma Catalog#:769193-1KG) to reach the final concentration of 20 mg/ml. […]

Jagged1 expression = assay: Jagged1 mRNA expression in cell lines after chemotherapy agents; format: cell-based; conditions: 48 hr; for Jagged1 expression: MC3T3-E1 pre-osteoblast cells and MSCs, 25 nM paclitaxel or 10 μM cisplatin; for Jagged1 induction: endothelial cells, RAW 264.7 pre-osteoclasts, SCP28 and SUM1315-M1B1 tumor cells
Description: (§1) FIG. 5. Chemotherapy induces Jagged1 expression in osteoblast lineage cells. (A) Jagged1 mRNA expression in osteoblast MC3T3-E1-Clone #4 osteoblast cells and mesenchymal stem cells (MSC), HPMECL endothelial cells (endo), RAW264.7 pre-osteoclast cells, and SCP28 and SUM1315-M1B1 breast tumor cells 48 hr post-treatment with 25 nM paclitaxel or 10 μM cisplatin. (B) Athymic nude mice were i.v. injected with PBS or cisplatin and euthanized 48 hr later. Hind limb bones were collected for IF staining against Alp (green) and Jagged1 (red). Nuclei were counter-stained with DAPI (blue). (C-E) Athymic nude mice were treated with either PBS or cisplatin on Day 0. One day after the pre-treatment, MCF7 (C), SUM1315-M1B1 (D) or SCP28 (E) cells were delivered locally to the hind limbs of these mice by IIA injection. BLI imaging and quantification of BLI signal at Day 4. (F) Mice from experiment in E were euthanized after BLI imaging at Day 4. Hind limbs were fixed and processed for IF imaging of GFP-expressing tumor cells (green) and ALP positive osteoblasts (red). Size bar: 80 μm. In A: n=3. *p<0.05 by Student's t-test. In C-E: n=5. *p<0.05 by Student's t-test. #: statistically insignificant.
The possibility that chemotherapy agents may induce Jagged1 expression in either tumor cells or in the bone stromal cells was considered. […] Key stromal cell types in bone metastasis include osteoclasts, osteoblasts and their progenitors (such as mesenchymal stem cells (MSCs)), and endothelial cells. Whether Jagged1 could be induced in these cells and various breast cancer cell lines upon treatment of two different chemotherapy agents, paclitaxel and cisplatin, which are commonly used in the treatment of breast cancer, was tested.
Total RNAs were isolated from cells using RNeasy kit (Qiagen) following manufacturer's instructions. RNAs were reverse transcribed into cDNAs by using Superscript III reverse transcription kit (Invitrogen). Real-time RT-PCR was performed on ABI 7900 96 HT series PCR machine (Applied Biosystem) using SYBR Green Supermix (Bio-Rad Laboratories). The gene-specific primer sets were used at a final concentration of 0.5 μM. All real-time RT-PCR assays were performed in duplicate in at least two independent experiments. Relative expression values of each target gene were normalized to GAPDH mRNA level.

[1] = test system: Jagged1 expression in osteoblast cells; assay: Jagged1/Alp immunostaining of hind limb bones after cisplatin; format: in vivo, nude mice; conditions: 48 hours after treatment
Description: FIG. 5. Chemotherapy induces Jagged1 expression in osteoblast lineage cells. (A) Jagged1 mRNA expression in osteoblast MC3T3-E1-Clone #4 osteoblast cells and mesenchymal stem cells (MSC), HPMECL endothelial cells (endo), RAW264.7 pre-osteoclast cells, and SCP28 and SUM1315-M1B1 breast tumor cells 48 hr post-treatment with 25 nM paclitaxel or 10 μM cisplatin. (B) Athymic nude mice were i.v. injected with PBS or cisplatin and euthanized 48 hr later. Hind limb bones were collected for IF staining against Alp (green) and Jagged1 (red). Nuclei were counter-stained with DAPI (blue). (C-E) Athymic nude mice were treated with either PBS or cisplatin on Day 0. […] BLI imaging and quantification of BLI signal at Day 4. […]
To confirm this finding in vivo, female nude mice were treated with either PBS or cisplatin. […] In the PBS control group, Jagged1-positive cells were rarely detected, and mostly co-localizing with ALP-positive osteoblasts.
Hindlimb bones were excised from mice at the end point of each experiment, immediately after the last BLI time point. […] For quantitative analysis of lesion area, a 10× objective was used to focus on the tumor region of interest and images were acquired using the AxioCamICc3 camera set to an exposure of around 100 ms. Osteoclast number was assessed as multinucleated TRAP+ cells and reported as number/field. […]

[2] = test system: MCF7, SCP28 and SUM1315-M1B1; assay: Bone metastatic seeding after cisplatin pre-treatment (IIA injection, BLI); format: in vivo, athymic nude mice; conditions: cisplatin one day before tumor cell injection, 4 days after injection
Description: as §1
To directly test the effect of increased Jagged1 expression in osteoblasts on bone metastasis seeding and progression, two models were utilized. […]

Structure (SMILES)	tumor burden at the end point (SCP28-Jagged1 cells)	Jagged1 expression (Jagged1 expression)	Jagged1 induction (Jagged1 expression)	Jagged1 expression (immunostaining, Alp positive cells) [1]	bone metastatic seeding (BLI) [2]
CC(=O)O[C@H]1C(=O)[C@@]2(C)[C@H]([C@H](OC(=O)c3ccccc3)[C@]3(O)C[C@H](OC(=O)[C@H](O)[C@@H](NC(=O)c4ccccc4)c4ccccc4)C(C)=C1C3(C)C)[C@]1(OC(C)=O)CO[C@@H]1C[C@@H]2O [paclitaxel]	only a mild reduction of tumor burden	significantly increased	no significant induction		
N.N.[Cl][Pt][Cl] [cisplatin]		significantly increased	no significant induction	much stronger Jagged1 expression	significant increase
